# Laboratory results: US12209075B2, “Pyridine-sulfonamide derivatives as sodium channel inhibitors” (GENENTECH, INC., priority 2018, dated 2025)
# Structures can show the parent of a compound that is named as a salt.
# Target: hNav1.7 (Homo sapiens (Human), UniProt Q15858)
# Assay: Tritiated compound binding to membranes from cells expressing hNav1.7 and the β1 subunit (Nav1.7 LBA EVO)
# Details: competitive binding vs [3H]compound, membranes with hNav1.7 and β1 subunit
# Description: Example 64a. Tritiated Compound Binding to Membranes Isolated from Cells that Heterologously Express hNav1.7 and the β1 Subunit
# Preparation of membranes containing recombinantly expressed sodium channels: Frozen recombinant cell pellets are thawed on ice and diluted to 4 times the cell pellet weight with ice cold 50 mM Tris HCl, pH 7.4 buffer. The cell suspensions are homogenized on ice using a motorized glass dounce homogeniser. Homogenates are further diluted 8.4 times with ice cold 50 mM Tris HCl, pH 7.4 buffer and then centrifuged at 200×g at 4° C. for 15 minutes. The supernatants are collected and centrifuged at 10000×g at 4° C. for 50 min. The pellets are then re-suspended in 100 mM NaCl, 20 mM Tris HCl, pH 7.4 buffer containing 1% v/v protease inhibitors (Calbiochem) and re-homogenized on ice. The homogenized membranes are then processed through a syringe equipped with a 26 gauge needle. Protein concentrations arer determined by Bradford Assay and the membranes are stored at −80° C.
# Radioligand Binding Studies: Saturation experiments. A competitive NaV1.7 inhibitor having a methyl group is tritiated. Three tritiums are incorporated in place of methyl hydrogens to generate [^3H]compound. Binding of this radioligand is performed in 5 mL borosilicate glass test tubes at room temperature. Binding is initiated by adding membranes to increasing concentrations of [^3H]compound in 100 mM NaCl, 20 mM Tris HCl, pH 7.4 buffer containing 0.01% w/v bovine serum albumin (BSA) for 18 h. Non-specific binding is determined in the presence of 1 μM unlabeled compound. After 18 h, the reactants are filtered through GF/C glass fiber filters presoaked in 0.5% w/v polyethylene imine. Filters are washed with 15 mL ice cold 100 mM NaCl, 20 mM Tris HCl, pH7.4 buffer containing 0.25% BSA to separate bound from free ligand. [^3H]compound bound to filters is quantified by liquid scintillation counting.
# Competitive binding experiments: Binding reactions are performed in 96-well polypropylene plates at room temperature for 18 h. In 360 μL, membranes are incubated with 100 pM [^3H]compound and increasing concentrations of Test Compound. Non-specific binding is defined in the presence of 1 μM unlabeled compound. Reactions are transferred and filtered through 96-well glass fiber/C filter plates presoaked with 0.5% polyethylene imine. The filtered reactions are washed 5 times with 200 μL ice cold buffer containing 0.25% BSA. Bound radioactivity is determined by liquid scintillation counting.
# Data Analysis: For saturation experiments, non-specific binding is subtracted from total binding to provide specific binding and these values are recalculated in terms of pmol ligand bound per mg protein. Saturation curves are constructed and dissociation constants are calculated using the single site ligand binding model: Beq=(Bmax*X)/(X+Kd), where Beq is the amount of ligand bound at equilibrium, Bmax is the maximum receptor density, Kd is the dissociation constant for the ligand, and X is the free ligand concentration. For competition studies percent inhibition is determined and IC50 values are calculated using a 4 parameter logistic model (% inhibition=(A+((B−A)/(1+((x/C)^D)))) using XLfit, where A and B are the maximal and minimum inhibition respectively, C is the IC50 concentration and D is the (Hill) slope.
# Example 64b. Tritiated Compound Binding to Membranes Isolated from Cells that Heterologous Express hNav1.7 and the β1 Subunit
# Preparation of membranes containing recombinantly expressed sodium channels: Following the procedure described in 31a, and making modifications as required to: centrifuge supernatants at 100000×g instead of 10000×g; re-suspend pellets in a buffer containing 0.01% BSA in addition to 100 mM NaCl, 20 mM Tris HCl, pH 7.4 buffer, and 1% v/v […]; and storing membranes at −80° C. in single use aliquots instead of pooled. […]
# Sequence of hNav1.7 (Q15858 whole entry, looked up): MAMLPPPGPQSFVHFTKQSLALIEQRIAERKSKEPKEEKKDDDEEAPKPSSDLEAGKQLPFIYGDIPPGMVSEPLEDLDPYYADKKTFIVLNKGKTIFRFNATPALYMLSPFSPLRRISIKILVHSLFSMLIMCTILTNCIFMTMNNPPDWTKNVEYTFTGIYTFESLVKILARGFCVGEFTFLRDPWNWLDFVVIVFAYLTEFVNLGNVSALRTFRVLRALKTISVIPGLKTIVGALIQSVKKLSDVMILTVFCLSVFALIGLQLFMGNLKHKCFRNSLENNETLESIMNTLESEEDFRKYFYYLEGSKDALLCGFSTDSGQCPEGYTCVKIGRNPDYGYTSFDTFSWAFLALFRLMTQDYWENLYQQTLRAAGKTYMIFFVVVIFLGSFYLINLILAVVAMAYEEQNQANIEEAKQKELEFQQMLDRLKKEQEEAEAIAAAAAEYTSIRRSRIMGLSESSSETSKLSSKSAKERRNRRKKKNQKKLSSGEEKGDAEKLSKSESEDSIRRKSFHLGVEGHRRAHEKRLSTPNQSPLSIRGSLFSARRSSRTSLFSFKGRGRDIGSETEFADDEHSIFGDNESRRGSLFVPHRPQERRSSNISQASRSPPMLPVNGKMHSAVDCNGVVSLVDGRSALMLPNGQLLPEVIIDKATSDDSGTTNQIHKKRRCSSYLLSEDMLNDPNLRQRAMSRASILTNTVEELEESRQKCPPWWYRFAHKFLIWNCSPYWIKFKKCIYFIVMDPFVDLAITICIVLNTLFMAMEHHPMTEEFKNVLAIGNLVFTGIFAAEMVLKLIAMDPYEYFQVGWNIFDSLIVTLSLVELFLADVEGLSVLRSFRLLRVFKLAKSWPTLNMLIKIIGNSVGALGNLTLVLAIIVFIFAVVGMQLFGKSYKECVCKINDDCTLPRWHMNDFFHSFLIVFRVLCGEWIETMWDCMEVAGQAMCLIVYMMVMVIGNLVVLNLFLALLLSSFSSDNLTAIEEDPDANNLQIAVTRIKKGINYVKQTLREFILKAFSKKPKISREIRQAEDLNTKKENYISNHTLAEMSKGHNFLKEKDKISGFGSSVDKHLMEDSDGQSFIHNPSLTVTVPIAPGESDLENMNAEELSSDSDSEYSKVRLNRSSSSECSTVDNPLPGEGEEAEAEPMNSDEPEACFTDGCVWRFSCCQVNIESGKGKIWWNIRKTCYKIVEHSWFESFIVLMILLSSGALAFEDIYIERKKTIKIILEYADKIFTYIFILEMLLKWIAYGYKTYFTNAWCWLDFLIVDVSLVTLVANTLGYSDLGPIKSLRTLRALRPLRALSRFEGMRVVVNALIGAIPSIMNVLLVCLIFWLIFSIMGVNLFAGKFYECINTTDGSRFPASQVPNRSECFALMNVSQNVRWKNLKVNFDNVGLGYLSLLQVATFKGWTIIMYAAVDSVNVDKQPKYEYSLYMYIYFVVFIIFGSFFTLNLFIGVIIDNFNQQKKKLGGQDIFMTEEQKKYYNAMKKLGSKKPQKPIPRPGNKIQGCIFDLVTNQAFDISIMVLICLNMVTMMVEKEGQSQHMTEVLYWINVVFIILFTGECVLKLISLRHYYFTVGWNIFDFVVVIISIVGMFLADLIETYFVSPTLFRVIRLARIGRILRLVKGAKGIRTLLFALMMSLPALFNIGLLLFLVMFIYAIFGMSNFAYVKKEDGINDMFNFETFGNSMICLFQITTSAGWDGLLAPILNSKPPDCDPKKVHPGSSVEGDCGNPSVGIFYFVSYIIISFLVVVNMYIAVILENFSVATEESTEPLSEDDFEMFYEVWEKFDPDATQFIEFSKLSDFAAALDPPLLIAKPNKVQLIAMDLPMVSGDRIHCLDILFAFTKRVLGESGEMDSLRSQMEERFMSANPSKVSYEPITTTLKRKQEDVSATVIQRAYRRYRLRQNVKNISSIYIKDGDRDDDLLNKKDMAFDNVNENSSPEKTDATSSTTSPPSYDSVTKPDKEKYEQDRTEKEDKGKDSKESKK
# Sequence of hNav1.7 (Q07699 whole entry partner, looked up): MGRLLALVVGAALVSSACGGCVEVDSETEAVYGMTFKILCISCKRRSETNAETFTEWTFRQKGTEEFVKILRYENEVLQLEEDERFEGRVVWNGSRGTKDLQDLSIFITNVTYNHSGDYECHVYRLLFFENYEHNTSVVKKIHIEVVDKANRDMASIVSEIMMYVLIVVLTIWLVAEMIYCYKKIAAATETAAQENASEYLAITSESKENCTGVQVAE
row,SMILES,IC50
1,"Cc1nc(O[C@H]2CC[C@H](c3cccc(C(F)(F)F)c3)C[C@@H]2N(C)C)ccc1S(=O)(=O)Nc1ccncn1 [Example 23, 6-(((1S,2S,4S)-2-(Dimethylamino)-4-(3-(trifluoromethyl)phenyl)cyclohexyl)oxy)-2-methyl-N-(pyrimidin-4-yl)pyridine-3-sulfonamide formate]",8.3 nM
2,"Cc1nc(O[C@H]2CC[C@H](c3cccc(C(F)(F)F)c3)C[C@@H]2N(C)C)c(F)cc1S(=O)(=O)Nc1ccncn1 [Example 53, 6-(((1S,2S,4S)-2-(Dimethylamino)-4-(3-(trifluoromethyl)phenyl)cyclohexyl)oxy)-5-fluoro-2-methyl-N-(pyrimidin-4-yl)pyridine-3-sulfonamide formate]",0.615 nM
3,"CN(C)[C@H]1C[C@@H](c2cccc(C(F)(F)F)c2)CC[C@@H]1Oc1ncc(S(=O)(=O)Nc2ccncn2)cc1C(F)(F)F [Example 14, 6-(((1S,2S,4S)-2-(dimethylamino)-4-(3-(trifluoromethyl)phenyl)cyclohexyl)oxy)-N-(pyrimidin-4-yl)-5-(trifluoromethyl)pyridine-3-sulfonamide]",43.7 nM
4,"Cc1cc(O[C@H]2CC[C@H](c3cccc(C(F)(F)F)c3)C[C@@H]2N(C)C)ncc1S(=O)(=O)Nc1ccncn1 [Example 32, 6-(((1S,2S,4S)-2-(Dimethylamino)-4-(3-(trifluoromethyl)phenyl)cyclohexyl)oxy)-4-methyl-N-(pyrimidin-4-yl)pyridine-3-sulfonamide]",2.07 nM
5,"O=S(=O)(Nc1ccncn1)c1ccc(O[C@H]2CC[C@H](c3cccc(C(F)(F)F)c3)C[C@@H]2N2CCCCC2)nc1 [Example 26, 6-(((1S,2S,4S)-2-(piperidin-1-yl)-4-(3-(trifluoromethyl)phenyl)cyclohexyl)oxy)-N-(pyrimidin-4-yl)pyridine-3-sulfonamide]",4.88 nM
6,"CN(C)[C@H]1C[C@@H](c2cccc(C(F)(F)F)c2)CC[C@@H]1Oc1ncc(S(=O)(=O)Nc2ccncn2)cc1C#N [Example 6, 5-Cyano-6-(((1S,2S,4S)-2-(dimethylamino)-4-(3-(trifluoromethyl)phenyl)cyclohexyl)oxy)-N-(pyrimidin-4-yl)pyridine-3-sulfonamide formate]",44.8 nM
7,"CN(C)[C@H]1C[C@@H](c2cccc(C(F)(F)F)c2)CC[C@@H]1Oc1ccc(S(=O)(=O)Nc2ccncn2)cn1 [Example 1, 6-(((1S,2S,4S)-2-(Dimethylamino)-4-(3-(trifluoromethyl)phenyl)cyclohexyl)oxy)-N-(pyrimidin-4-yl)pyridine-3-sulfonamide]",28.2 nM
8,"O=S(=O)(Nc1ccncn1)c1cnc(O[C@H]2CC[C@H](c3cccc(C(F)(F)F)n3)C[C@@H]2N2CCCC2)c(Cl)c1 [Example 40, 5-chloro-N-(pyrimidin-4-yl)-6-(((1S,2S,4S)-2-(pyrrolidin-1-yl)-4-(6-(trifluoromethyl)pyridin-2-yl)cyclohexyl)oxy)pyridine-3-sulfonamide]",0.955 nM
9,"CN(C)[C@H]1C[C@@H](c2cccc(C(F)(F)F)c2)CC[C@@H]1Oc1ncc(S(=O)(=O)Nc2ccncn2)cc1Cl [Example 3, 5-Chloro-6-(((1S,2S,4S)-2-(dimethylamino)-4-(3-(trifluoromethyl)phenyl)cyclohexyl)oxy)-N-(pyrimidin-4-yl)pyridine-3-sulfonamide]",40 nM
10,"Cc1nc(O[C@H]2CC[C@H](c3cccc(OC(F)F)c3)C[C@@H]2N(C)C)ccc1S(=O)(=O)Nc1ccncn1 [Example 52, 6-(((1S,2S,4S)-4-(3-(difluoromethoxy)phenyl)-2-(dimethylamino)cyclohexyl)oxy)-2-methyl-N-(pyrimidin-4-yl)pyridine-3-sulfonamide]",0.615 nM
11,"Cc1nc(O[C@H]2CC[C@H](c3ccc(Cl)c(C(F)(F)F)c3)C[C@@H]2N(C)C)ccc1S(=O)(=O)Nc1ccncn1 [Example 36, 6-(((1S,2S,4S)-4-(4-chloro-3-(trifluoromethyl)phenyl)-2-(dimethylamino)cyclohexyl)oxy)-2-methyl-N-(pyrimidin-4-yl)pyridine-3-sulfonamide]",1.28 nM
12,"Cc1nc(O[C@H]2CC[C@H](c3cc(Cl)cc(C(F)(F)F)c3)C[C@@H]2N(C)C)ccc1S(=O)(=O)Nc1ccncn1 [Example 49, 6-(((1S,2S,4S)-4-(3-chloro-5-(trifluoromethyl)phenyl)-2-(dimethylamino)cyclohexyl)oxy)-2-methyl-N-(pyrimidin-4-yl)pyridine-3-sulfonamide]",1.2 nM
13,"CCc1cc(S(=O)(=O)Nc2ccncn2)cnc1O[C@H]1CC[C@H](c2cccc(C(F)(F)F)c2)C[C@@H]1N(C)C [Example 24, 6-(((1S,2S,4S)-2-(Dimethylamino)-4-(3-(trifluoromethyl)phenyl)cyclohexyl)oxy)-5-ethyl-N-(pyrimidin-4-yl)pyridine-3-sulfonamide formate]",66.4 nM
14,"O=S(=O)(Nc1ccncn1)c1cnc(O[C@H]2CC[C@H](c3cccc(C(F)(F)F)c3)C[C@@H]2N2CCCC2)c(Cl)c1 [Example 18, 5-chloro-N-(pyrimidin-4-yl)-6-(((1S,2S,4S)-2-(pyrrolidin-1-yl)-4-(3-(trifluoromethyl)phenyl)-cyclohexyl)oxy)pyridine-3-sulfonamide]",0.95 nM
15,"CCN(C)[C@H]1C[C@@H](c2cccc(C(F)(F)F)c2)CC[C@@H]1Oc1ccc(S(=O)(=O)Nc2ccncn2)c(C)n1 [Example 48, 6-(((1S,2S,4S)-2-(Ethyl(methyl)amino)-4-(3-(trifluoromethyl)phenyl)cyclohexyl)oxy)-2-methyl-N-(pyrimidin-4-yl)pyridine-3-sulfonamide]",0.75 nM
16,"O=S(=O)(Nc1ccncn1)c1ccc(O[C@H]2CC[C@H](c3cccc(C(F)(F)F)c3)C[C@@H]2N2CCCC2)nc1 [Example 17, N-(pyrimidin-4-yl)-6-(((1S,2S,4S)-2-(pyrrolidin-1-yl)-4-(3-(trifluoromethyl)phenyl)cyclohexyl)oxy)-pyridine-3-sulfonamide formate]",1.18 nM
17,"Cc1nc(O[C@H]2CC[C@H](c3cccc(C(F)(F)F)c3)C[C@@H]2N2CCOCC2)ccc1S(=O)(=O)Nc1ccncn1 [Example 55, 2-Methyl-6-(((1S,2S,4S)-2-morpholino-4-(3-(trifluoromethyl)phenyl)cyclohexyl)oxy)-N-(pyrimidin-4-yl)pyridine-3-sulfonamide]",1.72 nM
18,"CN(C)[C@H]1C[C@@H](c2cc(C(F)(F)F)ccc2F)CC[C@@H]1Oc1ccc(S(=O)(=O)Nc2ccncn2)c(Cl)n1 [Example 44, 2-Chloro-6-(((1S,2S,4S)-2-(dimethylamino)-4-(2-fluoro-5-(trifluoromethyl)phenyl)-cyclohexyl)oxy)-N-(pyrimidin-4-yl)pyridine-3-sulfonamide formate]",0.72 nM
19,"Cc1cc(S(=O)(=O)Nc2ccncn2)cnc1O[C@H]1CC[C@H](c2cccc(C(F)(F)F)c2)C[C@@H]1N(C)C [Example 15, 6-(((1S,2S,4S)-2-(Dimethylamino)-4-(3-(trifluoromethyl)phenyl)cyclohexyl)oxy)-5-methyl-N-(pyrimidin-4-yl)pyridine-3-sulfonamide]",40.8 nM
20,"Cc1nc(O[C@H]2CC[C@H](c3cc(Cl)ccc3Cl)C[C@@H]2N(C)C)ccc1S(=O)(=O)Nc1ccncn1 [Example 39, 6-(((1S,2S,4S)-4-(2,5-dichlorophenyl)-2-(dimethylamino)cyclohexyl)oxy)-2-methyl-N-(pyrimidin-4-yl)pyridine-3-sulfonamide formate]",0.935 nM
21,"CN(C)[C@H]1C[C@@H](c2cccc(C(F)(F)F)c2)CC[C@@H]1Oc1ccc(S(=O)(=O)Nc2ccncn2)c(C2CC2)n1 [Example 34, 2-Cyclopropyl-6-(((1S,2S,4S)-2-(dimethylamino)-4-(3-(trifluoromethyl)phenyl)-cyclohexyl)oxy)-N-(pyrimidin-4-yl)pyridine-3-sulfonamide]",1.15 nM
